Source: patent US9932637B2, “Genetic polymorphisms associated with cardiovascular disorders and drug response, methods of detection and uses thereof” (CELERA CORPORATION, priority 2003, dated 2018)

System: patients with prior myocardial infarction (CARE study)
Test: CARE: association of SNPs with pravastatin treatment in cardiovascular events prevention (logistic regression, odds ratio pravastatin vs placebo by genotype; Table 8)
Assay type: in vivo, human
Conditions: for MI (Fatal/Nonfatal), n/total (%) / Nonfatal MI (Probable/Definite), n/total (%) / Nonfatal MI (def & prob), n/total (%) / Fatal/Nonfatal MI (def & prob), n/total (%) / Hosp. for Unstable Angina, n/total (%): MJD hCV16189421, All Patients; for MI (Fatal/Nonfatal), n/total (%) / Nonfatal MI (Probable/Definite), n/total (%) / Nonfatal MI (def & prob), n/total (%) / Fatal/Nonfatal MI (def & prob), n/total (%) / Hosp. for Unstable Angina, n/total (%) / Percutaneous Transluminal Coronary Angioplas, n/total (%) / Fatal/Nonfatal Cerebrovascular Disease, n/total (%): Prava arm; for Percutaneous Transluminal Coronary Angioplas, n/total (%): MMP27 hCV7492601, All Patients; for Total Coronary Heart Disease Events, n/total (%) / Fatal/Non-fatal Atherosclerotic CV Disease, n/total (%) / Hosp. for Cardiovascular Disease, n/total (%) / Total Cardiovascular Disease Events, n/total (%) / Prava vs. Placebo Odds Ratio, 0 Rare Alleles / Prava vs. Placebo Odds Ratio, 1 Rare Alleles / Prava vs. Placebo Odds Ratio, 2 Rare Alleles / Fatal Atherosclerotic Cardiovascular Disease, n/total (%) / Cardiovascular Mortality, n/total (%): All Patients; for Total Coronary Heart Disease Events, n/total (%) / Fatal/Non-fatal Atherosclerotic CV Disease, n/total (%) / Hosp. for Cardiovascular Disease, n/total (%) / Total Cardiovascular Disease Events, n/total (%) / Fatal Atherosclerotic Cardiovascular Disease, n/total (%) / Cardiovascular Mortality, n/total (%): Prava; for Fatal/Nonfatal Cerebrovascular Disease, n/total (%): NID2 hCV15876071, All Patients
Description: In order to identify genetic markers associated with acute coronary events (e.g. MI, stroke, unstable angina, congestive heart failure, etc.) or response to statin treatment for the prevention of coronary events, samples from the Cholesterol and Recurrent Events (CARE) study (a randomized multicentral double-blinded trial on secondary prevention of acute coronary events with pravastatin) (Sacks et al., 1991, Am. J. Cardiol. 68: 1436-1446) were genotyped. A well-documented myocardial infarction (MI) was one of the enrollment criteria for entry into the CARE study. Patients were enrolled in the CARE trial from 80 participating study centers. […] Patients were randomized to receive either 40 mg of pravastatin once daily or a matching placebo. The primary endpoint of the trial was death from coronary heart disease and the median duration of follow-up was 5.0 years (range, 4.0 to 6.2 years). […] Secondary endpoints of other related cardiovascular or metabolic disease events, and changes in clinical variables were also recorded in pravastatin-treated and placebo groups. All individuals included in the study had signed a written informed consent form and the study protocol was approved by the respective Institutional Review Boards (IRBs).
For genotyping SNPs in CARE patient samples, DNA was extracted from blood samples using conventional DNA extraction methods such as the QIA-amp kit from Qiagen. Genotypes were obtained on an ABI PRISM® 7900HT Sequence Detection PCR system (Applied Biosystems, Foster City, Calif.) by kinetic allele-specific PCR, similar to the method described by Germer et al. (Germer S., Holland M. J., Higuchi R. 2000, Genome Res. 10: 258-266).
Statistical analysis for association of SNPs with pravastatin treatment in cardiovascular events prevention (Table 8) was carried out using an overall logistic regression model that included an intercept, a parameter for the effect of a genotype containing two rare alleles versus a genotype containing no rare alleles, a parameter for the effect of a genotype containing one rare allele versus a genotype containing no rare alleles, a parameter for the effect of use of pravastatin versus the use of placebo, and parameters for the interaction effects between SNP genotypes and pravastatin use. The test of the overall model is a chi-square test with two degrees of freedom for analyses containing all three genotypes, and one degree of freedom for analyses containing two genotypes.
Effect sizes were estimated through odds ratios (pravastatin group versus placebo) for carriers of each genotype (groups of 0, 1, and 2 minor allele carriers). The effect was considered to be significant if p-value for testing whether any of the interactions between SNP genotypes and pravastatin use were <0.05. […] Odds ratios less than one indicate that the specific SNP allele has a protective effect and odds ratios greater than one indicate that the specific SNP allele has an adverse effect.

[1] = MTRR hCV7580070, 2 Rare Alleles, n/total 2/22
[2] = MTRR hCV7580070, 2 Rare Alleles, n/total 5/22
[3] = MTRR hCV7580070, Fatal/Non-fatal Atherosclerotic CV Disease
[4] = MTRR hCV7580070, Hosp. for Cardiovascular Disease
[5] = MTRR hCV7580070, Total Cardiovascular Disease Events
[6] = MTRR hCV7580070, Total Coronary Heart Disease Events
[7] = NPC1 hCV7490135, 1 Rare Allele, n/total 26/742
[8] = NPC1 hCV7490135, 2 Rare Alleles, n/total 3/324

CC[C@H](C)C(=O)O[C@H]1C[C@H](O)C=C2C=C[C@H](C)[C@H](CC[C@@H](O)C[C@@H](O)CC(=O)O)[C@H]21 [pravastatin]
MI (Fatal/Nonfatal), n/total (%) (0 Rare Alleles): (8.6%)
Nonfatal MI (Probable/Definite), n/total (%) (0 Rare Alleles): (8.0%)
Nonfatal MI (def & prob), n/total (%) (0 Rare Alleles): (7.5%)
Fatal/Nonfatal MI (def & prob), n/total (%) (1 Rare Allele): (11.9%)
Hosp. for Unstable Angina, n/total (%) (1 Rare Allele): (17.6%)
MI (Fatal/Nonfatal), n/total (%) (1 Rare Allele): (12.1%)
Nonfatal MI (Probable/Definite), n/total (%) (1 Rare Allele): (11.3%)
Nonfatal MI (def & prob), n/total (%) (1 Rare Allele): (11.2%)
Fatal/Nonfatal MI (def & prob), n/total (%) (2 Rare Alleles): (11.2%)
Hosp. for Unstable Angina, n/total (%) (2 Rare Alleles): (10.1%)
MI (Fatal/Nonfatal), n/total (%) (2 Rare Alleles): (11.2%)
Nonfatal MI (Probable/Definite), n/total (%) (2 Rare Alleles): (11.2%)
Nonfatal MI (def & prob), n/total (%) (2 Rare Alleles): (11.2%)
Percutaneous Transluminal Coronary Angioplas, n/total (%) (0 Rare Alleles): (9.7%)
Percutaneous Transluminal Coronary Angioplas, n/total (%) (1 Rare Allele): (9.1%)
Percutaneous Transluminal Coronary Angioplas, n/total (%) (2 Rare Alleles): (8.2%)
Total Coronary Heart Disease Events, n/total (%) (MTRR hCV7580070, 0 Rare Alleles, n/total 338/1201): (28.1%)
Fatal/Non-fatal Atherosclerotic CV Disease, n/total (%) (MTRR hCV7580070, 0 Rare Alleles, n/total 390/1201): (32.5%)
Hosp. for Cardiovascular Disease, n/total (%) (MTRR hCV7580070, 0 Rare Alleles, n/total 466/1201): (38.8%)
Total Cardiovascular Disease Events, n/total (%) (MTRR hCV7580070, 0 Rare Alleles, n/total 480/1201): (40.0%)
Total Coronary Heart Disease Events, n/total (%) (MTRR hCV7580070, 1 Rare Allele, n/total 98/284): (34.5%)
Fatal/Non-fatal Atherosclerotic CV Disease, n/total (%) (MTRR hCV7580070, 1 Rare Allele, n/total 110/284): (38.7%)
Hosp. for Cardiovascular Disease, n/total (%) (MTRR hCV7580070, 1 Rare Allele, n/total 135/284): (47.5%)
Total Cardiovascular Disease Events, n/total (%) (MTRR hCV7580070, 1 Rare Allele, n/total 137/284): (48.2%)
Fatal/Non-fatal Atherosclerotic CV Disease, n/total (%) [1]: (9.1%)
Total Coronary Heart Disease Events, n/total (%) [1]: (9.1%)
Hosp. for Cardiovascular Disease, n/total (%) [2]: (22.7%)
Total Cardiovascular Disease Events, n/total (%) [2]: (22.7%)
Prava vs. Placebo Odds Ratio, 0 Rare Alleles [3]: 0.74
Prava vs. Placebo Odds Ratio, 1 Rare Alleles [3]: 0.95
Prava vs. Placebo Odds Ratio, 2 Rare Alleles [3]: 0.09
Prava vs. Placebo Odds Ratio, 0 Rare Alleles [4]: 0.71
Prava vs. Placebo Odds Ratio, 1 Rare Alleles [4]: 1.04
Prava vs. Placebo Odds Ratio, 2 Rare Alleles [4]: 0.22
Prava vs. Placebo Odds Ratio, 0 Rare Alleles [5]: 0.71
Prava vs. Placebo Odds Ratio, 1 Rare Alleles [5]: 1.01
Prava vs. Placebo Odds Ratio, 2 Rare Alleles [5]: 0.22
Prava vs. Placebo Odds Ratio, 0 Rare Alleles [6]: 0.73
Prava vs. Placebo Odds Ratio, 1 Rare Alleles [6]: 1.00
Prava vs. Placebo Odds Ratio, 2 Rare Alleles [6]: 0.12
Fatal/Nonfatal Cerebrovascular Disease, n/total (%) (0 Rare Alleles): (5.7%)
Fatal/Nonfatal Cerebrovascular Disease, n/total (%) (1 Rare Allele): (4.1%)
Fatal/Nonfatal Cerebrovascular Disease, n/total (%) (2 Rare Alleles): (1.7%)
Fatal Atherosclerotic Cardiovascular Disease, n/total (%) (NPC1 hCV7490135, 0 Rare Alleles, n/total 25/437): (5.7%)
Cardiovascular Mortality, n/total (%) (NPC1 hCV7490135, 0 Rare Alleles, n/total 26/437): (5.9%)
Total Coronary Heart Disease Events, n/total (%) (NPC1 hCV7490135, 0 Rare Alleles, n/total 146/437): (33.4%)
Fatal/Non-fatal Atherosclerotic CV Disease, n/total (%) (NPC1 hCV7490135, 0 Rare Alleles, n/total 165/437): (37.8%)
Hosp. for Cardiovascular Disease, n/total (%) (NPC1 hCV7490135, 0 Rare Alleles, n/total 194/437): (44.4%)
Total Cardiovascular Disease Events, n/total (%) (NPC1 hCV7490135, 0 Rare Alleles, n/total 202/437): (46.2%)
Cardiovascular Mortality, n/total (%) [7]: (3.5%)
Fatal Atherosclerotic Cardiovascular Disease, n/total (%) [7]: (3.5%)
Total Coronary Heart Disease Events, n/total (%) (NPC1 hCV7490135, 1 Rare Allele, n/total 213/742): (28.7%)
Fatal/Non-fatal Atherosclerotic CV Disease, n/total (%) (NPC1 hCV7490135, 1 Rare Allele, n/total 246/742): (33.2%)
Hosp. for Cardiovascular Disease, n/total (%) (NPC1 hCV7490135, 1 Rare Allele, n/total 295/742): (39.8%)
Total Cardiovascular Disease Events, n/total (%) (NPC1 hCV7490135, 1 Rare Allele, n/total 303/742): (40.8%)
Cardiovascular Mortality, n/total (%) [8]: (0.9%)
Fatal Atherosclerotic Cardiovascular Disease, n/total (%) [8]: (0.9%)
Total Coronary Heart Disease Events, n/total (%) (NPC1 hCV7490135, 2 Rare Alleles, n/total 81/324): (25.0%)
